Experimental data: patent US20240200118A1, “COMPOSITIONS AND METHODS FOR OPTIMIZING TROPISM OF DELIVERY SYSTEMS FOR RNA” (Renagade Therapeutics Management Inc., priority 2021, published 2024)

Assay: In vivo biodistribution of co-delivered barcoded LNPs by Next Generation Sequencing of barcodes in tissues
Parameters: species or system BALB/c mice
Details: liver, kidney, lung, heart and brain; tail vein, 0.01 mg/kg per barcoded payload; compared with formulations using Lipids 1 and 3
Experimental: LNP/barcode complexes were prepared as described in Example 5. LNP/Barcode complex formulations were made by mixing different LNP/Barcode complex formulations together in equal parts (unless otherwise noted), to form Study Groups 1 and 2. Study Group 1 was dosed with a complex formulation that included formulations F-1, F-2, F-3, F-4, F-5, F-6, F-7, F-8 and F-16 in equal parts. Study Group 2 was dosed with a complex formulation that included formulations F-9, F-10, F-11, F-12, F-13, F-14, F-15, F-16 and F-17 in equal parts, except for F-10 which was mixed at 1/10th the concentration. BALB/c mice were injected via tail vein with 0.01 mg/kg (per unique barcoded payload, except for oRNA2A in F-10, which was dosed at 0.001 mg/kg) for each of Study Groups 1 and 2 in a total volume of 5 mL/kg. Each Study Group was dosed in 6 mice, and an additional 3 mice were dosed with PBS control. At 6 hr post injection, 3 animals from Study Group 1 were humanely euthanized by CO2 inhalation and organs including liver, spleen, lung, heart, kidney, brain, and blood were collected and snap frozen using liquid nitrogen. […] BLI images were detected in the auto-exposure mode. The BLI signal was quantitated using Living Image 4.7 software (Perkin Elmer) following the manufacturer's instruction. After BLI analysis the weights of the collected organs was measured. […]

delivery to organs (barcode ratios normalized to the input material): superior delivery in most organs tested
SMILES: CCCCCCCCCCCCCCCCCC[N+](C)(CCCCCCCCCCCCCCCCCC)CCNC(=N)N.[Cl-] [Lipid 2]
